Experimental data: ChEMBL document CHEMBL4613324, “Design, Synthesis, and Evaluation of a Series of Novel Super Long-Acting DPP-4 Inhibitors for the Treatment of Type 2 Diabetes” (J Med Chem, 2020)
The source made the active and inactive calls. The rule behind the calls is not given here.

Key:
CYP2B6 = CYP2B6 (Homo sapiens, UniProt P20813); assay: Stability assessed as recombinant human CYP2B6 mediated compound metabolism by measuring parent compound remaining after 30 mins relative to control; assay type: ADME; conditions: read-out: Stability
[1] = Intrinsic clearance in mouse liver microsomes at 0.5 uM incubated for 0.5 to 60 mins by LC-MS/MS analysis; assay type: ADME, Microsome; conditions: read-out: CLH
Cytochrome P450 2A6 [2] = biological target: T1, Cytochrome P450 2A6 (Homo sapiens, UniProt P11509); assay: (§1) Inhibition of recombinant human CYP2A6; assay type: ADME
T1 sequence (P11509 whole entry): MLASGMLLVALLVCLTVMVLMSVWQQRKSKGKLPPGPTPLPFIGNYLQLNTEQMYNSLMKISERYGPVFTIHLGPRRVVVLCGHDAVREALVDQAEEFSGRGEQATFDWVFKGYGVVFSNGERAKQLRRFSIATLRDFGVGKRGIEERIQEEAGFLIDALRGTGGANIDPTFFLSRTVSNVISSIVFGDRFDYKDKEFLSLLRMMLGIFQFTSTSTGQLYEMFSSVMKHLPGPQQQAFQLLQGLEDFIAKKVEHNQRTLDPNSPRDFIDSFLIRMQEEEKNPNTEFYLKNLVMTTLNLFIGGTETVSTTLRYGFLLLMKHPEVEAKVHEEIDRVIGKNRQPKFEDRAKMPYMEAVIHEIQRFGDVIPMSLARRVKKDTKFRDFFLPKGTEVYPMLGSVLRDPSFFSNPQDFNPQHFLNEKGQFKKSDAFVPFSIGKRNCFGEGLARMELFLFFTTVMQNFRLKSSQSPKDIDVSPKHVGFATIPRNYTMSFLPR

Mus musculus [3] = assay: Antidiabetic activity in ob/ob mouse assessed as reduction in decrease in HbA1c level at 3 mg/kg, po dosed once every three days for 31 day relative to control; assay type: functional; parameters: scale not given: the % may be the effect or the level left
[4] = Oral bioavailability in ICR mouse at 2 mg/kg measured after 0.0833 to 120 hrs by LC-MS-MS analysis; assay type: ADME, organism-based; conditions: in vivo
Cytochrome P450 3A5 [5] = biological target: T2, Cytochrome P450 3A5 (Homo sapiens, UniProt P20815); assay: (§2) Inhibition of recombinant human CYP3A5 using testosterone as substrate; assay type: ADME
Mus musculus [6] = assay: Antidiabetic activity in ob/ob mouse assessed as reduction in decrease in HbA1c level at 3 to 10 mg/kg, po dosed once every three days for 31 day; assay type: functional, organism-based
[7] = AUC (0 to t) in ICR mouse at 2 mg/kg, po measured after 0.0833 to 120 hrs by LC-MS-MS analysis; assay type: ADME, organism-based; parameters: time upper 120 hr, time lower 0.083 hr, dose 2 mg/kg, route oral; conditions: in vivo
Cytochrome P450 2A6 [8] = biological target: T1, Cytochrome P450 2A6; assay: as §1; assay type: ADME; remark: listed apart in the source
[9] = Toxicity in ob/ob mouse assessed as induction of body weight gain at 1 to 10 mg/kg, po dosed once every three days for 31 days; assay type: organism-based; conditions: in vivo, 744 h
Cytochrome P450 2B6 = biological target: T3, Cytochrome P450 2B6 (Homo sapiens, UniProt P20813); assay: Inhibition of recombinant human CYP2B6; assay type: ADME
T3 sequence (P20813 whole entry): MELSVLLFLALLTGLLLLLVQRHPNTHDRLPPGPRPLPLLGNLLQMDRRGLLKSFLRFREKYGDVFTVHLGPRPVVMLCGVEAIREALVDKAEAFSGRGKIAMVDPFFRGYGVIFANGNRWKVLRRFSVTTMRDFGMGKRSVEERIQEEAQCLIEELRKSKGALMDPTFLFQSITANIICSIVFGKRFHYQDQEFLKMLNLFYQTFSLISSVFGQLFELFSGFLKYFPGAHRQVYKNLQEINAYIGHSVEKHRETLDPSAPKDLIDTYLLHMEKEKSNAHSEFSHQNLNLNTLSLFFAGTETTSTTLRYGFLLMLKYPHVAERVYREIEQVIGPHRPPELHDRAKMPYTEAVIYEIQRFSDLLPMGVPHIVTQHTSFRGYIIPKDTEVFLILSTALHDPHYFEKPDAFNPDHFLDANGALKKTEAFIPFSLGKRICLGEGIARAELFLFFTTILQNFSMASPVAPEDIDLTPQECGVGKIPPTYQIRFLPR

Cytochrome P450 2A6 [10] = biological target: T1, Cytochrome P450 2A6; assay: as §1; assay type: ADME; remark: listed apart in the source
Rhesus monkey [11] = assay: Ex-vivo inhibition of DPP4 in plasma isolated from rhesus monkey treated at 10 mg/kg, ig after 12 days by fluorescence based assay relative to control; assay type: functional; conditions: Macaca mulatta, po, 288 h
Cytochrome P450 3A5 [12] = biological target: T2, Cytochrome P450 3A5; assay: as §2; assay type: ADME; remark: listed apart in the source
Cytochrome P450 2E1 [13] = biological target: T4, Cytochrome P450 2E1 (Homo sapiens, UniProt P05181); assay: (§3) Inhibition of recombinant human CYP2E1; assay type: ADME
Cytochrome P450 3A4 [14] = biological target: T5, Cytochrome P450 3A4 (Homo sapiens, UniProt P08684); assay: (§4) Inhibition of recombinant human CYP3A4 using testosterone as substrate; assay type: ADME
CYP3A5 = CYP3A5 (Homo sapiens, UniProt P20815); assay: Stability assessed as recombinant human CYP3A5 mediated compound metabolism by measuring parent compound remaining after 30 mins relative to control; assay type: ADME; conditions: read-out: Stability
Cytochrome P450 3A4 [15] = biological target: T5, Cytochrome P450 3A4; assay: as §4; assay type: ADME; remark: listed apart in the source
Dipeptidyl peptidase 8 = Dipeptidyl peptidase 8 (Homo sapiens, UniProt Q6V1X1); assay: Inhibition of human recombinant DPP8 incubated for 15 mins using Gly-Pro-7-AMC substrate
[16] = Volume of distribution at steady state in ICR mouse at 0.5 mg/kg, iv measured after 0.0833 to 120 hrs by LC-MS-MS analysis; assay type: ADME, organism-based; conditions: in vivo, read-out: Vdss
[17] = biological target: Voltage-gated inwardly rectifying potassium channel KCNH2 (Homo sapiens, UniProt Q12809); assay: Inhibition of human ERG by manual whole-cell patch-clamp assay
[18] = Toxicity in female Sprague-Dawley rat during 3-month repeated dose toxicology study; conditions: in vivo
Cytochrome P450 2D6 = Cytochrome P450 2D6 (Homo sapiens, UniProt P10635); assay: Inhibition of recombinant human CYP2D6; assay type: ADME
CYP3A4 = CYP3A4 (Homo sapiens, UniProt P08684); assay: Stability assessed as recombinant human CYP3A4 mediated compound metabolism by measuring parent compound remaining after 30 mins relative to control; assay type: ADME; conditions: read-out: Stability
[19] = Cmax in ICR mouse at 2 mg/kg, po measured after 0.0833 to 120 hrs by LC-MS-MS analysis; assay type: ADME, organism-based; parameters: dose 2 mg/kg, route oral; conditions: in vivo
Cytochrome P450 2C9 = Cytochrome P450 2C9 (Homo sapiens, UniProt P11712); assay: Inhibition of recombinant human CYP2C9; assay type: ADME
Rhesus monkey [20] = assay: Ex-vivo inhibition of DPP4 in plasma isolated from rhesus monkey treated at 10 mg/kg, ig after 2 weeks by fluorescence based assay relative to control; assay type: functional; conditions: Macaca mulatta, po, 336 h
Cytochrome P450 3A5 [21] = biological target: T2, Cytochrome P450 3A5; assay: Inhibition of recombinant human CYP3A5 using midazolam as substrate; assay type: ADME
Cytochrome P450 2E1 [22] = biological target: T4, Cytochrome P450 2E1; assay: as §3; assay type: ADME; remark: listed apart in the source
CYP2A6 = CYP2A6 (Homo sapiens, UniProt P11509); assay: Stability assessed as recombinant human CYP2A6 mediated compound metabolism by measuring parent compound remaining after 30 mins relative to control; assay type: ADME; conditions: read-out: Stability

T2 sequence (P20815 whole entry): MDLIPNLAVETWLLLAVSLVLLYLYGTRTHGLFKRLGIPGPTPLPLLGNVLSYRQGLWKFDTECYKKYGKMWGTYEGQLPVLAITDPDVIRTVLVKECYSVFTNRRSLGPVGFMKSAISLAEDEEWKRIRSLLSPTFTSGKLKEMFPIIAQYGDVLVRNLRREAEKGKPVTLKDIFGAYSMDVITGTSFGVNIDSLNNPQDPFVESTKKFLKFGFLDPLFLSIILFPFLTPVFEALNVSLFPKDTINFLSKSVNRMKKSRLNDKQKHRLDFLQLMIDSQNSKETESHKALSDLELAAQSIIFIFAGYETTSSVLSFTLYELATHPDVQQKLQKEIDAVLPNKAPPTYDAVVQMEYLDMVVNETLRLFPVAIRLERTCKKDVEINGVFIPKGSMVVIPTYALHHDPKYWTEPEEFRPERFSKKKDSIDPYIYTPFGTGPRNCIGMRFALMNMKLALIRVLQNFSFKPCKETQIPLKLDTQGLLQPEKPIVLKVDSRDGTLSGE
T5 sequence (P08684 whole entry): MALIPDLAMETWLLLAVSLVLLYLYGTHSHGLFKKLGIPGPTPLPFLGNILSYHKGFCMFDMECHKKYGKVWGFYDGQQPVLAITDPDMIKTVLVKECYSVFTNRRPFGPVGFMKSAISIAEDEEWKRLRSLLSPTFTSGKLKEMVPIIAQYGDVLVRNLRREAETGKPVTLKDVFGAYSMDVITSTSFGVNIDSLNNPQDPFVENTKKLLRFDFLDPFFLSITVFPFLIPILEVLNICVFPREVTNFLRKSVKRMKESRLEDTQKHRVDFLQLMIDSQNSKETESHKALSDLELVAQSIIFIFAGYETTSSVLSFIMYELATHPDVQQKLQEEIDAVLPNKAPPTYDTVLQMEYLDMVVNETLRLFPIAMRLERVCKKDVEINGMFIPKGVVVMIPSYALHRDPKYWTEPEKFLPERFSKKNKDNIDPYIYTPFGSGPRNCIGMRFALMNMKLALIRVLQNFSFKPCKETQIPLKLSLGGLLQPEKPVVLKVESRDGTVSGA
T4 sequence (P05181 whole entry): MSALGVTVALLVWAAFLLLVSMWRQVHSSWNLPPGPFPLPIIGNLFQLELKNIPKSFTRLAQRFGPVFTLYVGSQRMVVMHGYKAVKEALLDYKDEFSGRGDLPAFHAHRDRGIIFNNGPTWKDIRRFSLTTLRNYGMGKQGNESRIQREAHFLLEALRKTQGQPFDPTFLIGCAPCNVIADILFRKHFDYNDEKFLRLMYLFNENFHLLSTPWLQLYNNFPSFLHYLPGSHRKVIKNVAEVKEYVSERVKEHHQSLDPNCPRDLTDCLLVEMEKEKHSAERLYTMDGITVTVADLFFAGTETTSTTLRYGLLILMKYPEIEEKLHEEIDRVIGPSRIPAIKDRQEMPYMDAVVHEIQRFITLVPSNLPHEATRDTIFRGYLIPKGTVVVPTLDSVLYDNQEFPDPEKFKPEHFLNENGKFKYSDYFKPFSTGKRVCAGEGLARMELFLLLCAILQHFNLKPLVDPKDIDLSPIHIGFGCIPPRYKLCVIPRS
Chain of Cytochrome P450 2D6 (P10635 whole entry): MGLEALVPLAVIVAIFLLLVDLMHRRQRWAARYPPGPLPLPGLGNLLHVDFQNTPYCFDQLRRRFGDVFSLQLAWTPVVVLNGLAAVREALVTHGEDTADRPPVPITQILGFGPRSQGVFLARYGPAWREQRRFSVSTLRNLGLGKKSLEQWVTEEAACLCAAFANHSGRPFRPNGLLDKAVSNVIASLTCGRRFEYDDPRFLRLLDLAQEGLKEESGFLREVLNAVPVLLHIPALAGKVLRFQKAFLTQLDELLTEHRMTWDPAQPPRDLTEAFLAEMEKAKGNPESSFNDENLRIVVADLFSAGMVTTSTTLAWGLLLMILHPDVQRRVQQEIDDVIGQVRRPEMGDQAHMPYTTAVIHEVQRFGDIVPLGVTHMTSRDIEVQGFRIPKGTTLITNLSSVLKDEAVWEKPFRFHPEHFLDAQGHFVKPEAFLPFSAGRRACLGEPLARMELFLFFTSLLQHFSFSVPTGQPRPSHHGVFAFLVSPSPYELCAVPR
Chain of CYP3A4 (P08684 whole entry): as the sequence (P08684 whole entry) above
Chain of Dipeptidyl peptidase 8 (Q6V1X1 whole entry): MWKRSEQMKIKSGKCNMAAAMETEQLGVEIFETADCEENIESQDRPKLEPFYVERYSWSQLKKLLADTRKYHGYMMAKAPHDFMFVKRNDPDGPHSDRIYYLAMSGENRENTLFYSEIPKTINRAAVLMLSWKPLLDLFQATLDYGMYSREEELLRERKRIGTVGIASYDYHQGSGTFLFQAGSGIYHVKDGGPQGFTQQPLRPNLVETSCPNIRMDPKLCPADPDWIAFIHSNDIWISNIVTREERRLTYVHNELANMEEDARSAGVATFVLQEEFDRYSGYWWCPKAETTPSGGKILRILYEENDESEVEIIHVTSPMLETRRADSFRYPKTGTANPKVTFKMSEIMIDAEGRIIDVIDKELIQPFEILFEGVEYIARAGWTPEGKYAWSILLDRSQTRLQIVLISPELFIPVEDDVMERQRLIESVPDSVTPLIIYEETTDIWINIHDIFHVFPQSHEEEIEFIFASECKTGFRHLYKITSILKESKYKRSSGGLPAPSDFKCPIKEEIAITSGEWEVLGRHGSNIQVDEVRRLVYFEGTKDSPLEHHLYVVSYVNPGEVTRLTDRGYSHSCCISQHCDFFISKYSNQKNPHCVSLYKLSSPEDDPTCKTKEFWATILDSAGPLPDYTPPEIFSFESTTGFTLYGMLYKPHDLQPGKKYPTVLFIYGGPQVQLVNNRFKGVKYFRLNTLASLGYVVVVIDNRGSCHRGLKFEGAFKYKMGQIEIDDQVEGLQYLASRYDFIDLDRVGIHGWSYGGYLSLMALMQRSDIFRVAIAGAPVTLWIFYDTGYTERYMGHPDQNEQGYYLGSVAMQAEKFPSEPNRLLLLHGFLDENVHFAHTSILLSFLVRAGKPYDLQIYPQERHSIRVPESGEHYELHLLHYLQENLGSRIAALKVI
Chain of Cytochrome P450 2C9 (P11712 whole entry): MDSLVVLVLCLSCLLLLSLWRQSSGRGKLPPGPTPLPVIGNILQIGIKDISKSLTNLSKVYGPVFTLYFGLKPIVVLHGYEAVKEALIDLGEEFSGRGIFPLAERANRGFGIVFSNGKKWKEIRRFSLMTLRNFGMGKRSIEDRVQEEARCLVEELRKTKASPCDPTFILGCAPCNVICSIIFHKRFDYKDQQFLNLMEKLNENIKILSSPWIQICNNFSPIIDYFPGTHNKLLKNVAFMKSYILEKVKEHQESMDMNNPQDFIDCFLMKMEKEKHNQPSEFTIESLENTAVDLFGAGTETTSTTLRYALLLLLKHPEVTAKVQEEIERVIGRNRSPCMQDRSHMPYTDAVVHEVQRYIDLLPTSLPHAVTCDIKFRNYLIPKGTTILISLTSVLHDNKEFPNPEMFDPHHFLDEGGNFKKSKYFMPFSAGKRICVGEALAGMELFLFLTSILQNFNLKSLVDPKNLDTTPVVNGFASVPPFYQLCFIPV
Chain of Voltage-gated inwardly rectifying potassium channel KCNH2 (Q12809 whole entry): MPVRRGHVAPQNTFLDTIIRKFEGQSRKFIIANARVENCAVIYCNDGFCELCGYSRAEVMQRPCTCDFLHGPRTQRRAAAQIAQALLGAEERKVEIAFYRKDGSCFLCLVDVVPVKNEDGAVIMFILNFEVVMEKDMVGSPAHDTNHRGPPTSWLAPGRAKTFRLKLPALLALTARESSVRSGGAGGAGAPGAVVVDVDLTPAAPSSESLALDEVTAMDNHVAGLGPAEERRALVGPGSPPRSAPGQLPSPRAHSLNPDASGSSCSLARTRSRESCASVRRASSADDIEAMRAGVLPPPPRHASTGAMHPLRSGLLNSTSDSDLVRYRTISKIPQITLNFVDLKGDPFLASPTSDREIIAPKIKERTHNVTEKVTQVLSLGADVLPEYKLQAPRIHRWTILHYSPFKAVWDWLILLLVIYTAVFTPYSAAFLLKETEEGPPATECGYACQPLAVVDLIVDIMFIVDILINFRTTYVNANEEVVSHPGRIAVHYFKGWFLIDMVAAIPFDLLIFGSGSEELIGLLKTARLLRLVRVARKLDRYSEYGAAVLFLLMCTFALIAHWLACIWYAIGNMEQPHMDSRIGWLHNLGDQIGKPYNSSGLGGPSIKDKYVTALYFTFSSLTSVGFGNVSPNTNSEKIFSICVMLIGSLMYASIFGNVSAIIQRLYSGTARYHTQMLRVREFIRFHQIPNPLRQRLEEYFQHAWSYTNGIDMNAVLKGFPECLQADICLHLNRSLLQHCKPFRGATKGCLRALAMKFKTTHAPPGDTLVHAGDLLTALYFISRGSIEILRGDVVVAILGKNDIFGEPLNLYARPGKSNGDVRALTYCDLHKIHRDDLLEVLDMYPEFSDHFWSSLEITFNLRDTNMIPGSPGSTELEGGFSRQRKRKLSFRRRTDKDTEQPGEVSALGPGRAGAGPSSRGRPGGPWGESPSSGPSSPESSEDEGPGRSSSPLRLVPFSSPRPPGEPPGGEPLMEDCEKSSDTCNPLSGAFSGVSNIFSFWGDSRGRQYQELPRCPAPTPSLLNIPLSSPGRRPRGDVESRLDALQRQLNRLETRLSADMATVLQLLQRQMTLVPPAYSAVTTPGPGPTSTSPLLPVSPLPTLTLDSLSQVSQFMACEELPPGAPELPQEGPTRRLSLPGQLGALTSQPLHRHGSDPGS
Chain of CYP3A5 (P20815 whole entry): as the sequence (P20815 whole entry) above

CS(=O)(=O)n1cc2c(n1)CN([C@@H]1C[C@H](N)[C@@H](c3cc(F)ccc3F)O[C@@H]1C(F)(F)F)C2 [COFROGLIPTIN]
remaining at 0.5 h (CYP2B6): > 95%
microsomal CLint at 0.5 µM [1]: 0.8 µL/min/mg
IC50 (Cytochrome P450 2A6 [2]): > 100 µM
Activity (Mus musculus [3]): 19.1%
bioavailability [4]: 62.2%
IC50 (Cytochrome P450 3A5 [5]): > 100 µM
Activity (Mus musculus [6]): Active
AUC(0-t) [7]: 7900 ng·h/mL
IC50 (Cytochrome P450 2A6 [8]): > 100 µM
Activity [9]: Toxic
IC50 (Cytochrome P450 2B6): > 100 µM
IC50 (Cytochrome P450 2A6 [10]): > 100 µM
inhibition in vivo at 10 mg/kg (Rhesus monkey [11]): > 80%
IC50 (Cytochrome P450 3A5 [12]): > 100 µM
IC50 (Cytochrome P450 2E1 [13]): > 100 µM
IC50 (Cytochrome P450 3A4 [14]): > 100 µM
remaining at 0.5 h (CYP3A5): > 95%
IC50 (Cytochrome P450 3A4 [15]): > 100 µM
IC50 (Dipeptidyl peptidase 8): > 100 µM
Vd [16]: 3.3 L/kg
IC50 [17]: > 30 µM
NOAEL at 3 month [18]: 100 mg/kg
IC50 (Cytochrome P450 2D6): > 100 µM
remaining at 0.5 h (CYP3A4): > 95%
Cmax [19]: 352 ng/mL
IC50 (Cytochrome P450 2C9): > 100 µM
inhibition in vivo at 10 mg/kg (Rhesus monkey [20]): 76.2%
IC50 (Cytochrome P450 3A5 [21]): > 100 µM
IC50 (Cytochrome P450 2E1 [22]): > 100 µM
remaining at 0.5 h (CYP2A6): > 95%
